Measurements reported in ChEMBL document CHEMBL5233255, “Natural and nature-inspired stilbenoids as antiviral agents” (Eur J Med Chem, 2020).
In brackets after ≈: the same amount, converted by molar mass.

Key:
[1] = test system: Human immunodeficiency virus 1; test: Antiviral activity against HIV-1 infected in human C8166 cells assessed as inhibition of viral replication; format: functional, organism-based; settings: Human immunodeficiency virus 1, C8166
[2] = Therapeutic index, ratio of CC50 for cytotoxicity against human C8166 cells to EC50 for antiviral activity against HIV-1 infected in C8166 cells; format: toxicity, cell-based; settings: read-out: Ratio CC50/EC50
[3] = Cytotoxicity against human C8166 cells assessed as inhibition of cell growth by MTT assay; format: toxicity, cell-based
[4] = test system: Human immunodeficiency virus 1; test: Antiviral activity against HIV-1 infected in HEK293T cells; format: functional, organism-based; settings: Human immunodeficiency virus 1, HEK-293T
[5] = test system: Hepatitis C virus; test: Antiviral activity against Hepatitis C virus genotype 2 infected in human Huh7.5 cells assessed as reduction in viral replication by RT-PCR assay; format: functional, organism-based, Hepacivirus hominis; settings: genotype 2, Huh7.5
[6] = test system: Hepatitis C virus; test: Antiviral activity against Hepatitis C virus genotype 2 infected in renilla luciferase-J6/JFH1 RNA-transfected human Huh7.5 cells assessed as reduction in viral replication incubated for 72 hrs by qRT-PCR analysis; format: functional, organism-based, Hepacivirus hominis; settings: genotype 2, Huh7.5, 72 h
[7] = test system: Hepatitis C virus; test: Antiviral activity against Hepatitis C virus genotype 1 infected in Bart79I RNA-transfected human Huh7.5 cells assessed as reduction in viral replication incubated for 24 to 72 hrs by RT-PCR assay; format: functional, organism-based, Hepacivirus hominis; settings: genotype 1, Huh7.5
[8] = Cytotoxicity against HCV RNA-transfected human Huh7.5 cells assessed as reduction in cell viability; format: toxicity, cell-based, Huh-7.5; settings: HCV RNA-transfected Huh7.5 cells
[9] = test system: Human alphaherpesvirus 2; test: Antiviral activity against HSV-2 333 infected in African green monkey Vero cells incubated for 3 days by plaque reduction assay; format: functional, organism-based; settings: Human alphaherpesvirus 2, 333, Vero, 72 h
[10] = test system: Human alphaherpesvirus 1; test: Antiviral activity against HSV-1 15577 infected in African green monkey Vero cells incubated for 3 days by plaque reduction assay; format: functional, organism-based; settings: Human alphaherpesvirus 1, 15577, Vero, 72 h
[11] = test system: Human alphaherpesvirus 1; test: Antiviral activity against HSV-1 clinical isolate infected in African green monkey Vero cells incubated for 3 days by plaque reduction assay; format: functional, organism-based; settings: Human alphaherpesvirus 1, Vero, 72 h
[12] = Selectivity index, ratio of CC50 for cytotoxicity against human MT4 cells expressing eGFP under control of HIV-1 LTR promoter sequence to EC50 for antiviral activity against HIV-1 infected in human MT4 cells expressing eGFP under control of HIV-1 LTR promoter sequence; format: toxicity, cell-based; settings: read-out: Ratio CC50/EC50
[13] = Inhibition of recombinant HIV-1 integrase catalysed strand transfer activity measured after 60 mins by electrochemiluminescent plate-based assay; parameters: species or system Human immunodeficiency virus 1
[14] = Inhibition of HIV-1 integrase catalysed 3' processing activity by densitometric analysis; parameters: species or system Human immunodeficiency virus 1
[15] = test system: Human immunodeficiency virus 1; test: Antiviral activity against VSV pseudo-typed HIV-1 infected in human MT4 cells expressing eGFP under control of HIV-1 LTR promoter sequence; format: functional, organism-based; settings: Human immunodeficiency virus 1, MT4
[16] = Cytotoxicity against human MT4 cells expressing eGFP under control of HIV-1 LTR promoter sequence; format: toxicity, cell-based
[17] = test system: Influenza A virus; test: Antiviral activity against influenza A virus A/PR/8/34 (H1N1) infected in human A549 cells assessed as inhibition of RANTES production incubated for 48 hrs by ELISA; format: functional, organism-based; settings: A549, 48 h
[18] = Cytotoxicity against human Huh7.5 cells infected with Hepatitis C virus assessed as reduction in cell viability; format: toxicity, cell-based, Huh-7.5
[19] = Cytotoxicity against human A549 cells assessed as reduction in cell viability by Alamar blue assay; format: toxicity, cell-based
[20] = test system: Hepatitis C virus; test: Antiviral activity against Hepatitis C virus infected in human Huh7.5 cells assessed as reduction in viral replication; format: functional, organism-based, Hepacivirus hominis
[21] = Cytotoxicity against HEK293T cells; format: toxicity, cell-based, HEK-293T; settings: human, read-out: TC50 (the source's name)
[22] = Selectivity index, ratio of CC50 for cytotoxicity against MDCK cells to IC50 for influenza A virus A/Guangdong/243/72 ([…]) infected in MDCK cells; format: toxicity, cell-based; settings: dog, read-out: Ratio CC50/IC50
[23] = test system: Influenza A virus; test: Antiviral activity against influenza A virus A/Guangdong/243/72 ([…]) infected in MDCK cells assessed as inhibition of virus-induced cytopathic effect; format: functional, organism-based

## O=S(=O)([O-])Oc1cc(/C=C/c2ccc(O)cc2)cc(O[C@@H]2O[C@H](CO)[C@@H](O)[C@H](O)[C@H]2O)c1.[Na+]
[1]
  EC50: 89.7 µg/mL
[2]
  selectivity ratio: 5.87
[3]
  CC50: 527 µg/mL

## Oc1ccc(-c2ccc(-c3cc(O)cc(O)c3)[nH]2)cc1
[4]
  EC50: > 75 µM

## Oc1ccc(/C=C/c2cc(O)cc3c2C(c2cc(O)cc(O)c2)C(c2ccc(O)cc2)O3)cc1 (racemic)
[5]
  EC50: 9.3 µM
[6]
  EC50: 0.2 µM
[7]
  EC50: 1.7 µM
[8]
  CC50: > 10 µM

## O=S(=O)([O-])O[C@H]1[C@H](Oc2cc(O)cc(/C=C/c3ccc(O)cc3)c2)O[C@H](CO)[C@@H](O)[C@@H]1O.[Na+]
[1]
  EC50: 153 µg/mL
[2]
  selectivity ratio: > 13
[3]
  CC50: > 2000 µg/mL

## Oc1cc(O)cc(-c2ccc3cnccc3c2)c1
[4]
  EC50: > 75 µM

## CC1=C[C@@H](c2c(O)cc(-c3cc4ccc(O)cc4o3)cc2O)[C@@H](C(=O)c2ccc(O)cc2O)[C@H](c2ccc(O)cc2O)C1 [MULBERROFURAN C]
[9]
  IC50: 2.5 µg/mL (≈ 4.31 µM)
[10]
  IC50: 2.5 µg/mL (≈ 4.31 µM)
[11]
  IC50: 2.5 µg/mL (≈ 4.31 µM)

## Oc1ccc(-c2cc(-c3cc(O)cc(O)c3)on2)cc1
[4]
  EC50: > 75 µM

## Nc1ccc(/N=N/c2ccc(/C=C/c3ccc(/N=N/c4ccc(N)c5ccc(S(=O)(=O)O)cc45)cc3S(=O)(=O)O)c(S(=O)(=O)O)c2)c2ccc(S(=O)(=O)O)cc12
[12]
  selectivity ratio: > 6.5
[13]
  IC50: 3.2 µM
[14]
  IC50: 3.2 µM
[15]
  EC50: 15.3 µM
[16]
  CC50: > 100 µM

## Oc1ccc([C@H]2c3c(O)cc(O)cc3[C@H]3c4c(cc(O)cc4[C@@H]2c2cc(/C=C/c4cc(O)cc5c4[C@H](c4cc(O)cc(O)c4)[C@@H](c4ccc(O)cc4)O5)ccc2O)O[C@@H]3c2ccc(O)cc2)cc1 [VITISIN A]
[17]
  EC50: 0.27 µM
[18]
  CC50: > 10 µM
[19]
  CC50: 22.4 µM
[20]
  EC50: 0.035 µM

## OC[C@H]1O[C@@H](Oc2cc(O)cc(/C=C/c3ccc(O)cc3)c2)[C@H](O)[C@@H](O)[C@@H]1O [PICEID]
[1]
  EC50: > 200 µg/mL
[3]
  CC50: > 200 µg/mL

## Oc1ccc(-c2oc3ccccc3c2-c2cc(O)cc(O)c2)cc1
[4]
  EC50: 65.1 µM
[21]
  CC50: 108 µM

## CCOc1ccc(/N=N/c2ccc(/C=C/c3ccc(/N=N/c4ccc(OCC)cc4)cc3S(=O)(=O)O)c(S(=O)(=O)O)c2)cc1
[12]
  selectivity ratio: > 166
[13]
  IC50: 0.5 µM
[14]
  IC50: 1.1 µM
[15]
  EC50: 0.6 µM
[16]
  CC50: > 100 µM

## O=[N+]([O-])c1ccc(/C=C/c2ccc([N+](=O)[O-])cc2S(=O)(=O)O)c(S(=O)(=O)O)c1
[13]
  IC50: > 111 µM
[14]
  IC50: > 111 µM

## Oc1cc(O)cc(-c2ccc(-c3ccncc3)cc2)c1
[4]
  EC50: > 100 µM

## Oc1ccc(/C=C/c2cc(O)cc3c2[C@@H](c2cc(O)cc(O)c2)[C@H](c2ccc(O)cc2)O3)cc1 [EPSILON-VINIFERIN]
[17]
  EC50: 10.1 µM
[18]
  CC50: > 10 µM
[5]
  EC50: 2.9 µM
[19]
  CC50: 54.7 µM
[6]
  EC50: 0.1 µM
[7]
  EC50: 7 µM
[8]
  CC50: > 10 µM
[20]
  EC50: 0.159 µM

## Oc1ccc(-n2cc(-c3cc(O)cc(O)c3)nn2)cc1
[4]
  EC50: > 75 µM

## OC[C@H]1O[C@@H](Oc2cc(O)cc(-c3cc4ccc(O)cc4o3)c2)[C@H](O)[C@@H](O)[C@@H]1O
[9]
  IC50: 2.5 µg/mL (≈ 6.18 µM)
[10]
  IC50: 2.5 µg/mL (≈ 6.18 µM)
[11]
  IC50: 2.5 µg/mL (≈ 6.18 µM)

## Oc1ccc(-c2ncc(-c3cc(O)cc(O)c3)cn2)cc1
[4]
  EC50: > 75 µM

## COc1cc([C@H]2Oc3c(ccc(/C=C/c4cc(O)cc(O)c4)c3OC)[C@@H]2c2cc(O)cc(O)c2)ccc1O
[22]
  selectivity ratio: 9.6
[23]
  IC50: 12 µg/mL (≈ 23.3 µM)

## O=S(=O)([O-])O[C@H]1[C@H](O)[C@@H](O)[C@H](Oc2cc(O)cc(/C=C/c3ccc(O)cc3)c2)O[C@@H]1CO.[Na+]
[1]
  EC50: > 200 µg/mL
[2]
  selectivity ratio: < 4.06
[3]
  CC50: 813 µg/mL

## Oc1ccc(-c2ccc(-c3cc(O)cc(O)c3)cc2)cc1
[4]
  EC50: 8.8 µM
[21]
  CC50: 179 µM

## O=S(=O)(O)c1cc(/N=N/c2cc(S(=O)(=O)O)c3ccccc3c2O)ccc1/C=C/c1ccc(/N=N/c2cc(S(=O)(=O)O)c3ccccc3c2O)cc1S(=O)(=O)O
[12]
  selectivity ratio: 19.2
[13]
  IC50: 0.18 µM
[14]
  IC50: 0.32 µM
[15]
  EC50: 3.07 µM
[16]
  CC50: 59 µM
